Experimental data reported in patent publication US20250296938A1, “Compounds that Interact with the Ras Superfamily for the Treatment of Cancers, Inflammatory Diseases, Rasopathies, and Fibrotic Disease” (SHY Therapeutics, LLC, priority 2018, published 2025).
Where two headings read alike, the source gives them in different places.

Key:
Assay in all cases: Ras GTP binding domain inhibition assay (Cy3-GTP/Cy5-GTP competition)
[1] = system: KRas G12C mutant; design: species or system human; settings: 20 μM
Summary of the method: (§1)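 His-tagged Ras immobilized on nickel-coated wells in Tris buffer (pH 7.4 or 7.0) with 1 mM MgCl2, 1 mM DTT, 1% DMSO. Compound (20 μM, or serial dilution for IC50) incubated 3 hours at room temperature, ± Sos (residues 556-1049) in final hour. Bound 100 nM Cy3-/Cy5-GTP read after 45 minutes and washing.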

[2] = system: KRas Q61H mutant; design: species or system human; settings: 20 μM
Summary of the method: as §1

[3] = system: KRas wild type; design: species or system human; settings: 20 μM; for KRas wild type % inh.: without SOS (Table 7A); for KRas wild type: % inh.: without SOS
Summary of the method: as §1

[4] = biological target: T1, KRas G12D mutant (Homo sapiens, UniProt P01116, G12D); settings: 20 μM
T1 construct: fused on or other part: His tag, used for capture on nickel-coated plates
Summary of the method: as §1

[5] = with SOS (Table 7A), read-out: KRas G12D mutant + SOS: % inh.
[6] = without SOS (Table 7A), read-out: KRas G12D mutant: % inh.
[7] = with SOS, read-out: KRas G-12D mutant + SOS: % inh.
[8] = without SOS, read-out: KRas G12D mutant: % inh.

KRas G12C mutant + SOS: % inh. ([1]; with SOS (Table 7A))	KRas G12C mutant: % inh. ([1]; without SOS (Table 7A))	KRas Q61H mutant + SOS: % inh. ([2]; with SOS (Table 7A))	KRas Q61H mutant: % inh. ([2]; without SOS (Table 7A))	KRas wild type + SOS: % inh. ([3]; with SOS (Table 7A))	KRas wild type % inh. [3]	inhibition at 20 µM [4, 5] [%]	inhibition at 20 µM [4, 6] [%]	KRas G12C mutant + SOS: % inh. ([1]; with SOS)	KRas G12C mutant: % inh. ([1]; without SOS)	KRas Q61H mutant + SOS: % inh. ([2]; with SOS)	KRas Q61H mutant: % inh. ([2]; without SOS)	KRas wild type + SOS: % inh. ([3]; with SOS)	KRas wild type: % inh. [3]	inhibition at 20 µM [4, 7] [%]	inhibition at 20 µM [4, 8] [%]	SMILES
D (76-100% inhibition)	D (76-100% inhibition)	D (76-100% inhibition)	D (76-100% inhibition)	D (76-100% inhibition)	C (51-75% inhibition)	51 to 75	51 to 75	–	–	–	–	–	–	–	–	CO[C@H]1C[C@@H](Nc2nc(-c3nccn3C)nc3sc(C(=O)NC(C)C)c(-c4ccccc4)c23)C1 [drawing 920]
–	–	–	–	–	–	–	–	D (76-100% inhibition)	C (51-75% inhibition)	D (76-100% inhibition)	C (51-75% inhibition)	C (51-75% inhibition)	C (51-75% inhibition)	51 to 75	76 to 100	COc1cccc(Cn2ccnc2-c2nc(O)c3scc(-c4ccccn4)c3n2)c1 [drawing 850]
A (1-25% inhibition)	B (26-50% inhibition)	B (26-50% inhibition)	A (1-25% inhibition)	A (1-25% inhibition)	B (26-50% inhibition)	1 to 25	1 to 25	–	–	–	–	–	–	–	–	COc1c(F)cccc1-c1sc2nc(-c3nccn3C)nc(NC3CCC(OC)C3)c2c1-c1ccccc1 (centres unmarked) [drawing 886]
–	–	–	–	–	–	–	–	D (76-100% inhibition)	B (26-50% inhibition)	D (76-100% inhibition)	B (26-50% inhibition)	D (76-100% inhibition)	B (26-50% inhibition)	51 to 75	26 to 50	CO[C@H]1CCC(Nc2nc(-c3nccn3C)nc3sc(-c4ccn(C)n4)c(-c4ccccc4)c23)C1 (some centres unmarked) [drawing 860]
–	–	–	–	–	–	–	–	D (76-100% inhibition)	B (26-50% inhibition)	D (76-100% inhibition)	A (1-25% inhibition)	D (76-100% inhibition)	B (26-50% inhibition)	51 to 75	1 to 25	COCCNc1nc(-c2nccn2C)nc2sc(-c3cccc(OC)c3Cl)c(-c3ccc(OC)cc3)c12 [drawing 874]
–	–	–	–	–	–	–	–	C (51-75% inhibition)	C (51-75% inhibition)	C (51-75% inhibition)	D (76-100% inhibition)	B (26-50% inhibition)	D (76-100% inhibition)	51 to 75	51 to 75	COc1c(O)nc(-c2ccccn2)nc1Oc1cnn(C)c1 [drawing 803]
–	–	–	–	–	–	–	–	B (26-50% inhibition)	D (76-100% inhibition)	B (26-50% inhibition)	C (51-75% inhibition)	A (1-25% inhibition)	D (76-100% inhibition)	1 to 25	51 to 75	O=C(NC1CCCC1)c1nc(-c2ccccn2)nc(O)c1O [drawing 812]
–	–	–	–	–	–	–	–	C (51-75% inhibition)	B (26-50% inhibition)	C (51-75% inhibition)	B (26-50% inhibition)	C (51-75% inhibition)	C (51-75% inhibition)	51 to 75	51 to 75	COC1CCN(c2nc(-c3nccn3C)nc3sc(-c4ccccc4Cl)c(-c4cscn4)c23)C1 (centres unmarked) [drawing 849]
D (76-100% inhibition)	C (51-75% inhibition)	D (76-100% inhibition)	C (51-75% inhibition)	D (76-100% inhibition)	C (51-75% inhibition)	51 to 75	26 to 50	–	–	–	–	–	–	–	–	CO[C@H]1C[C@@H](Nc2nc(-c3nccn3C)nc3sc(-c4ccn(C)n4)c(-c4ccccc4)c23)C1.Cl
A (1-25% inhibition)	A (1-25% inhibition)	0 (0% inhibition)	A (1-25% inhibition)	0 (0% inhibition)	A (1-25% inhibition)	0	0	–	–	–	–	–	–	–	–	Cn1ccc(-c2sc3nc(-c4nccn4C)nc(N[C@H]4C[C@@H](O)C4)c3c2-c2ccccc2)n1 [drawing 908]
B (26-50% inhibition)	C (51-75% inhibition)	C (51-75% inhibition)	C (51-75% inhibition)	B (26-50% inhibition)	C (51-75% inhibition)	26 to 50	26 to 50	–	–	–	–	–	–	–	–	COc1c(O)nc(-c2ccccn2)nc1Nc1ccccc1 [drawing 880]
–	–	–	–	–	–	–	–	C (51-75% inhibition)	0 (0% inhibition)	C (51-75% inhibition)	0 (0% inhibition)	C (51-75% inhibition)	0 (0% inhibition)	26 to 50	1 to 25	COCC(C)Nc1nc(-c2nccn2C)nc2sc(-c3ccn(C)n3)c(-c3ccccc3)c12 (centres unmarked) [drawing 864]
–	–	–	–	–	–	–	–	C (51-75% inhibition)	A (1-25% inhibition)	C (51-75% inhibition)	B (26-50% inhibition)	C (51-75% inhibition)	A (1-25% inhibition)	26 to 50	26 to 50	CO[C@@H]1CCC(Nc2nc(-c3nccn3C)nc3sc(-c4ccn(C)n4)c(-c4ccccc4)c23)C1 (some centres unmarked) [drawing 859]
–	–	–	–	–	–	–	–	A (1-25% inhibition)	0 (0% inhibition)	B (26-50% inhibition)	A (1-25% inhibition)	A (1-25% inhibition)	0 (0% inhibition)	1 to 25	0	COc1ccc(-c2c(-c3ccn(C)n3)sc3nc(-c4nccn4C)nc(N4CCC(OC)C4)c23)cc1 (centres unmarked) [drawing 868]
–	–	–	–	–	–	–	–	C (51-75% inhibition)	0 (0% inhibition)	C (51-75% inhibition)	B (26-50% inhibition)	B (26-50% inhibition)	0 (0% inhibition)	1 to 25	26 to 50	Cn1ccc(-c2sc3nc(-c4nccn4C)nc(NCC4CCOC4)c3c2-c2ccccc2)n1 (centres unmarked) [drawing 861]
B (26-50% inhibition)	B (26-50% inhibition)	B (26-50% inhibition)	C (51-75% inhibition)	A (1-25% inhibition)	A (1-25% inhibition)	26 to 50	26 to 50	–	–	–	–	–	–	–	–	Cn1ccc(-c2sc3nc(-c4nccn4C)nc(O)c3c2-c2ccccc2)n1 [drawing 904]
–	–	–	–	–	–	–	–	B (26-50% inhibition)	A (1-25% inhibition)	B (26-50% inhibition)	B (26-50% inhibition)	A (1-25% inhibition)	B (26-50% inhibition)	1 to 25	26 to 50	COC1CCN(c2nc(-c3nccn3C)nn3cc(-c4ccccc4)c(-c4ccccc4)c23)C1 (centres unmarked) [drawing 796]
D (76-100% inhibition)	D (76-100% inhibition)	D (76-100% inhibition)	D (76-100% inhibition)	D (76-100% inhibition)	D (76-100% inhibition)	76 to 100	76 to 100	–	–	–	–	–	–	–	–	COCCNC(=O)c1sc2nc(-c3nccn3C)nc(N[C@@H]3CC[C@H](OC)C3)c2c1-c1ccccc1 [drawing 925]
–	–	–	–	–	–	–	–	D (76-100% inhibition)	0 (0% inhibition)	D (76-100% inhibition)	0 (0% inhibition)	D (76-100% inhibition)	0 (0% inhibition)	51 to 75	1 to 25	COC1CCN(c2nc(-c3nccn3C)nc3sc(-c4ccc(CO)cc4)c(-c4ccccc4)c23)C1.Cl (centres unmarked)
